Experimental data reported in US8008291B2 (Mimetica Pty Ltd, priority 2008, dated 2011).

Key:
[1] = molecular target: T1, rhesus monkey MC5R (whole cells) (Macaca mulatta, UniProt A0A5F8AEA9); experiment: MC5R radioligand binding, rhesus monkey MC5R whole cells
T1 construct: expressed in transfected cells

[2] = molecular target: T2, rhesus monkey MC5R (membranes) (Macaca mulatta, UniProt A0A5F8AEA9); experiment: MC5R radioligand binding, rhesus monkey MC5R membranes
T2 construct: expressed in transfected cells
T2 sequence (A0A5F8AEA9 1-325): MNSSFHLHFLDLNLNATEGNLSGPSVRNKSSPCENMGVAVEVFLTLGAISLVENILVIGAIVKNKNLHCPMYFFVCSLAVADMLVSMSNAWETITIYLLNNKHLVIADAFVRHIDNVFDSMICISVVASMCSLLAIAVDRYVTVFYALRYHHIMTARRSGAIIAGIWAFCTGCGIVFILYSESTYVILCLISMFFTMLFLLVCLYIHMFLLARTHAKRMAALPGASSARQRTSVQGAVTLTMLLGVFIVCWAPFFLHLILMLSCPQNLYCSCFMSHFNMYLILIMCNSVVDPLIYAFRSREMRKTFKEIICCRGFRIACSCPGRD

human MC5R (hMC5R) = molecular target: T3, human MC5R (hMC5R) (Homo sapiens, UniProt P33032); experiment: Human MC5R radioligand binding assay (membranes, [125I] NDP-MSH displacement); settings: hMC5R binding; tested as trifluoroacetate or hydrochloride salts, or free bases; read-out: MC5R radioligand IC50
T3 construct: purchased Perkin Elmer RBXMC5M400UA
T3 sequence (P33032 whole entry): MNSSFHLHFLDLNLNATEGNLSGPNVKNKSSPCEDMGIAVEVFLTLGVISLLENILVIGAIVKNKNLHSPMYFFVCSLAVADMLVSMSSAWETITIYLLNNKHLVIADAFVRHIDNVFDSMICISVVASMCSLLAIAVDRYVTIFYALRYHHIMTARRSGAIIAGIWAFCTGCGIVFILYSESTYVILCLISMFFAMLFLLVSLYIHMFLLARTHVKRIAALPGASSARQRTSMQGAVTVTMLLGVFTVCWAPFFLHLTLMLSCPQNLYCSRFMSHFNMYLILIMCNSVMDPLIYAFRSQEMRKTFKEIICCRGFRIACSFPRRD
In short: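 Frozen human MC5R membranes incubated with test compound and in-house iodogen-labeled, HPLC-purified [125I]NDP-MSH for 1 hr at 37° C. Binding measured as displacement of the radioligand.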

T1 sequence (A0A5F8AEA9 1-325): as the sequence (A0A5F8AEA9 1-325) above

Row | SMILES | IC50 (human MC5R (hMC5R)) | other results
1 | O=C(NC[C@@H]1CCN(CC(c2ccccc2)c2ccccc2)C(=O)[C@H](CCCN2CCCCC2)N1)c1ccc2ccccc2c1 [Compound 64, N-(((3S,5S)-1-(2,2-diphenylethyl)-2-oxo-3-(3-(piperidin-1-yl)propyl)-1,4-diazepan-5-yl)methyl)-2-naphthamide] |  | IC50 [1]: > 5 µM; IC50 [2]: 7.31 µM
2 | NCCC[C@@H]1N[C@H](CNC(=O)COc2ccc(F)cc2)CCN(CC(c2ccccc2)c2ccccc2)C1=O [Compound 233, N-(((3S,5S)-3-(3-aminopropyl)-1-(2,2-diphenylethyl)-2-oxo-1,4-diazepan-5-yl)methyl)-2-(4-fluorophenoxy)acetamide] | < 1000 nM | 
3 | O=C(/C=C/c1ccc(F)cc1)NC[C@@H]1CCN(CC(c2ccccc2)c2ccccc2)C(=O)[C@H](CCN2CCCCC2)N1 [Compound 284, (E)-N-(((3S,5S)-1-(2,2-diphenylethyl)-2-oxo-3-(2-(piperidin-1-yl)ethyl)-1,4-diazepan-5-yl)methyl)-3-(4-fluorophenyl)acrylamide] | < 10 nM | 
4 | CCC(C)(CC)CN1CC[C@@H](CNC(=O)c2ccc(Cl)c(Cl)c2)N[C@@H](CCN2CCCCC2)C1=O [Compound 521, 3,4-dichloro-N-(((3S,5S)-1-(2-ethyl-2-methylbutyl)-2-oxo-3-(2-(piperidin-1-yl)ethyl)-1,4-diazepan-5-yl)methyl)benzamide] | < 100 nM | 
5 | CCCCOC(=O)NCC[C@@H]1N[C@H](CNC(=O)c2ccc3cc(Cl)ccc3c2)CCN(C[C@@H](CC)c2ccccc2)C1=O [Compound 524, butyl 2-((2S,7S)-7-((6-chloro-2-naphthamido)methyl)-3-oxo-4-((S)-2-phenylbutyl)-1,4-diazepan-2-yl)ethylcarbamate] | < 1000 nM | 
6 | Cc1cc(C)cc(CN2CC[C@@H](CNC(=O)c3ccc4ccccc4c3)N[C@@H](CCCNC(=N)N)C2=O)c1 [Compound 286, N-(((3S,5S)-1-(3,5-dimethylbenzyl)-3-(3-guanidinopropyl)-2-oxo-1,4-diazepan-5-yl)methyl)-2-naphthamide] | < 1000 nM | 
7 | C[C@@H](CN1CC[C@@H](CNC(=O)c2ccc3ccccc3c2)N[C@@H](CCCN)C1=O)c1ccccc1 [Compound 357, N-(((3S,5S)-3-(3-aminopropyl)-2-oxo-1-((R)-2-phenylpropyl)-1,4-diazepan-5-yl)methyl)-2-naphthamide] | < 10000 nM | 
8 | CC[C@H](CN1CC[C@@H](CNC(=O)NCc2ccc(Cl)cc2)N[C@@H](CCN2CCCCC2)C1=O)c1ccccc1 [Compound 518] | < 1000 nM | 
9 | N=C(N)NCCC[C@@H]1N[C@H](CNC(=O)c2ccc3ccccc3c2)CCN(C2CCCCC2)C1=O [Compound 205, N-(((3S,5S)-1-cyclohexyl-3-(3-guanidinopropyl)-2-oxo-1,4-diazepan-5-yl)methyl)-2-naphthamide] | < 1000 nM | 
10 | COc1cc(CN2CC[C@@H](CNC(=O)c3ccc4ccccc4c3)N[C@@H](CCCN)C2=O)cc(OC)c1 [Compound 316, N-(((3S,5S)-3-(3-aminopropyl)-1-(3,5-dimethoxybenzyl)-2-oxo-1,4-diazepan-5-yl)methyl)-2-naphthamide] | < 10000 nM | 
11 | CC[C@H](CN1CCC(CNC(=O)c2ccc3cc(Cl)ccc3c2)NC(C2CCN(CCC(C)C)CC2)C1=O)c1ccccc1 (stereo partly shown) [Compound 448] | < 100 nM | 
12 | CCC(CC)CN1CC[C@@H](CNC(=O)/C=C/c2ccc(Cl)cc2)N[C@@H](CCN)C1=O [Compound 330, (E)-N-(((3S,5S)-3-(2-aminoethyl)-1-(2-ethylbutyl)-2-oxo-1,4-diazepan-5-yl)methyl)-3-(4-chlorophenyl)acrylamide] | < 1000 nM | 
13 | CC[C@H](CN1CC[C@@H](CNC(=O)c2ccc3cc(Cl)ccc3c2)N[C@@H](CCCN2CCCCC2)C1=O)c1ccccc1 [Compound 417, 6-chloro-N-(((3S,5S)-2-oxo-1-((S)-2-phenylbutyl)-3-(3-(piperidin-1-yl)propyl)-1,4-diazepan-5-yl)methyl)-2-naphthamide] | < 100 nM | 
14 | CCC[C@H](CN1CC[C@@H](CNC(=O)c2ccc3ccccc3c2)N[C@@H](CCN2CCCCC2)C1=O)c1ccccc1 [Compound 433, N-(((3S,5S)-2-oxo-1-((S)-2-phenylpentyl)-3-(2-(piperidin-1-yl)ethyl)-1,4-diazepan-5-yl)methyl)-2-naphthamide] | < 100 nM | 
15 | O=C(NC[C@@H]1CCN(CC(c2ccccc2)c2ccccc2)C(=O)[C@H](CCN2CCCCC2)N1)c1cccc(C(F)(F)F)c1 [Compound 436, N-(((3S,5S)-1-(2,2-diphenylethyl)-2-oxo-3-(2-(piperidin-1-yl)ethyl)-1,4-diazepan-5-yl)methyl)-3-(trifluoromethyl)benzamide] | < 1000 nM | 
16 | CC(=O)N[C@@H](Cc1c[nH]cn1)C(=O)N[C@H](Cc1ccc2ccccc2c1)[C@@H]1CCN(CC(c2ccccc2)c2ccccc2)C(=O)[C@H](CCCNC(=N)N)N1 [Compound 86, (S)-2-acetamido-N—((R)-1-((3S,5S)-1-(2,2-diphenylethyl)-3-(3-guanidinopropyl)-2-oxo-1,4-diazepan-5-yl)-2-(naphthalen-2-yl)ethyl)-3-(1H-imidazol-4-yl)propanamide] | < 1000 nM | 
17 | O=C(NC[C@@H]1CCN(CC(c2ccccc2)c2ccccc2)C(=O)[C@H](CCCNCc2ccccc2)N1)c1ccc2ccccc2c1 [Compound 245, N-(((3S,5S)-3-(3-(benzylamino)propyl)-1-(2,2-diphenylethyl)-2-oxo-1,4-diazepan-5-yl)methyl)-2-naphthamide] | < 100 nM | 
18 | CC1CC(C)CC(CN2CC[C@@H](CNC(=O)c3ccc(Cl)c(Cl)c3)N[C@@H](CCN)C2=O)C1 (stereo partly drawn) [Compound 375, N-(((3S,5S)-3-(2-aminoethyl)-1-((3,5-dimethylcyclohexyl)methyl)-2-oxo-1,4-diazepan-5-yl)methyl)-3,4-dichlorobenzamide] | < 1000 nM | 
19 | CC(=O)NCCC[C@@H]1N[C@H](CNC(=O)/C=C/c2ccc(C)cc2)CCN(CC(c2ccccc2)c2ccccc2)C1=O [Compound 293, (E)-N-(((3S,5S)-3-(3-acetamidopropyl)-1-(2,2-diphenylethyl)-2-oxo-1,4-diazepan-5-yl)methyl)-3-p-tolylacrylamide] | < 1000 nM | 
20 | CC1CCCC(C)C1CN1CC[C@@H](CNC(=O)c2ccc3ccccc3c2)N[C@@H](CCCN)C1=O (stereo partly drawn) [Compound 384, N-(((3S,5S)-3-(3-aminopropyl)-1-((2,6-dimethylcyclohexyl)methyl)-2-oxo-1,4-diazepan-5-yl)methyl)-2-naphthamide] | < 10000 nM | 
21 | CC[C@H](CN1CC[C@@H](CNC(=O)c2ccc(Cl)c(Cl)c2)N[C@@H](CCNC(C)C)C1=O)c1ccccc1 [Compound 465, 3,4-dichloro-N-(((3S,5S)-3-(2-(isopropylamino)ethyl)-2-oxo-1-((S)-2-phenylbutyl)-1,4-diazepan-5-yl)methyl)benzamide] | < 100 nM | 
